Test results published in paper PMC5097156, “Potent and selective chemical probe of hypoxic signalling downstream of HIF-α hydroxylation via VHL inhibition” (Nature Communications, 2016).

Experiments:
Test in all cases: biochemical
Design in all cases: Dundee MRC-PPU Express kinase screen, remaining kinase activity
Details in all cases: read-out: Mean % of remaining kinase activity (±sd)
SmMLCK = target: T1, SmMLCK (Homo sapiens, UniProt Q15746)
T1 construct: gene MYLK; smooth muscle

PIM1 = PIM1 (Homo sapiens, UniProt P11309)
S6K1 = target: T2, S6K1 (Homo sapiens, UniProt P23443)
T2 construct: gene RPS6KB1

HIPK2 = HIPK2 (Homo sapiens, UniProt Q9H2X6)
Sequence of HIPK2 (Q9H2X6 whole entry): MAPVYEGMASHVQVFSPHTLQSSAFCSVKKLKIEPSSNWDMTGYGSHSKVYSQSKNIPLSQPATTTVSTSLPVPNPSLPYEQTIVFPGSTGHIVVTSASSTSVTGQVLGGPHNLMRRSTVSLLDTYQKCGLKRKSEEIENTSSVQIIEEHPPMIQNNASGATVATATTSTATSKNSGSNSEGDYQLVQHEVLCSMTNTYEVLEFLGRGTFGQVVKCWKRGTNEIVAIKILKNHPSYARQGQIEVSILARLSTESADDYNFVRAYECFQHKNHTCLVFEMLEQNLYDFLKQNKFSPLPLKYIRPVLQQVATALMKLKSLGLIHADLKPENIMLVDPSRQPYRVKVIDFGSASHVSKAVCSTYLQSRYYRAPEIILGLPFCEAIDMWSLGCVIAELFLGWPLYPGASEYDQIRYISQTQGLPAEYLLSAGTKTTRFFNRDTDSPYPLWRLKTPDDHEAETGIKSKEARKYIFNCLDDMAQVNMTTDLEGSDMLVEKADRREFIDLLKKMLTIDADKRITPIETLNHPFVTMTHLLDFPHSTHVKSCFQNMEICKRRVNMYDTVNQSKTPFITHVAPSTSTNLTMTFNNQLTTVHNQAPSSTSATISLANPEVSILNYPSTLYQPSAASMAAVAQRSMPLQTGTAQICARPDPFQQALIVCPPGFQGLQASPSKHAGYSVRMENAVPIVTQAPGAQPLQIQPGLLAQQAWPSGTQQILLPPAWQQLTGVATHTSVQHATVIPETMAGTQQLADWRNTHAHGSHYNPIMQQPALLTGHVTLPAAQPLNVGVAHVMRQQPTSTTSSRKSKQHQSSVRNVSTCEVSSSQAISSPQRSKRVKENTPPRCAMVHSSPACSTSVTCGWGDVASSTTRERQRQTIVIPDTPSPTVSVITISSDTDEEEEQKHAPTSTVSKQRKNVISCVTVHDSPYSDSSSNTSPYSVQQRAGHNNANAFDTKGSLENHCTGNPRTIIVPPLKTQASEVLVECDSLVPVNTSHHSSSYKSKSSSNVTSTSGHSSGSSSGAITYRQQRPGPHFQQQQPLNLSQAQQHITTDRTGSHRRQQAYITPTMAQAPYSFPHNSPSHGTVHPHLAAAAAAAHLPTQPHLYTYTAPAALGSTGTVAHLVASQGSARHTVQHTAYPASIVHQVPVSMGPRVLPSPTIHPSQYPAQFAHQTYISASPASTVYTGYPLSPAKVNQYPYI

NEK6 = NEK6 (Homo sapiens, UniProt Q9HC98)
CK2 = target: T3, CK2 (Homo sapiens, UniProt P68400)
T3 construct: gene CSNK2A1

JNK1 = target: T4, JNK1 (Homo sapiens, UniProt P45983)
T4 construct: gene MAPK8
T4 sequence (P45983 whole entry): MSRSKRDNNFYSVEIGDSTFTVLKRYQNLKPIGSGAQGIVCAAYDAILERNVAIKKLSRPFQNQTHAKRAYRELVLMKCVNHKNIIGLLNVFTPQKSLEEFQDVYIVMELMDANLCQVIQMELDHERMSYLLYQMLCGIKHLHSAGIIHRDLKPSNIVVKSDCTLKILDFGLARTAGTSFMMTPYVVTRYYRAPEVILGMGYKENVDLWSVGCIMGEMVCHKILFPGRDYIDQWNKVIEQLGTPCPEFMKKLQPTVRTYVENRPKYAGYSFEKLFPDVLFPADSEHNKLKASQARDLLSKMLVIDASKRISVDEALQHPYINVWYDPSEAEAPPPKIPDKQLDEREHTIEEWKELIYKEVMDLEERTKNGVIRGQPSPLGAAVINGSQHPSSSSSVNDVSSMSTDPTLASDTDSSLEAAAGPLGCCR

SGK1 = SGK1 (Homo sapiens, UniProt O00141)
CHK2 = target: T5, CHK2 (Homo sapiens, UniProt O96017)
T5 construct: gene CHEK2

ROCK 2 = target: T6, ROCK 2 (Homo sapiens, UniProt O75116)
T6 construct: gene ROCK2

PAK4 = PAK4 (Homo sapiens, UniProt O96013)
Sequence of PAK4 (O96013 whole entry): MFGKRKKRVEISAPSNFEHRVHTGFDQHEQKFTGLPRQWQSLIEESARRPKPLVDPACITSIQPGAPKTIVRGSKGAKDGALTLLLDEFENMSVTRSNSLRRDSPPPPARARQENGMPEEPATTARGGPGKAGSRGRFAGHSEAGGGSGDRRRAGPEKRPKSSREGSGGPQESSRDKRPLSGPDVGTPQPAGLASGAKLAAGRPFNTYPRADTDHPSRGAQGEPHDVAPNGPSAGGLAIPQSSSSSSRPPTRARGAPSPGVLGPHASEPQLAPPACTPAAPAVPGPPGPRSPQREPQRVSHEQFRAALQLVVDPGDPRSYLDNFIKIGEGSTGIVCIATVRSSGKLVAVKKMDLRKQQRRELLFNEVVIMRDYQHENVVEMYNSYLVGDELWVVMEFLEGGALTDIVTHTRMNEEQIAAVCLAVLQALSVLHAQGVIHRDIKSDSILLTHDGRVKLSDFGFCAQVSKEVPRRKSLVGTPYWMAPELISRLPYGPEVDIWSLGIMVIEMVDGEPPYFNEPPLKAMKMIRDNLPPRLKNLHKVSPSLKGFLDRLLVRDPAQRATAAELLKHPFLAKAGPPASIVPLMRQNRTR

RSK1 = target: T7, RSK1 (Homo sapiens, UniProt Q15418)
T7 construct: gene RPS6KA1

MLK3 = target: T8, MLK3 (Homo sapiens, UniProt Q16584)
T8 construct: gene MAP3K11
T8 sequence (Q16584 whole entry): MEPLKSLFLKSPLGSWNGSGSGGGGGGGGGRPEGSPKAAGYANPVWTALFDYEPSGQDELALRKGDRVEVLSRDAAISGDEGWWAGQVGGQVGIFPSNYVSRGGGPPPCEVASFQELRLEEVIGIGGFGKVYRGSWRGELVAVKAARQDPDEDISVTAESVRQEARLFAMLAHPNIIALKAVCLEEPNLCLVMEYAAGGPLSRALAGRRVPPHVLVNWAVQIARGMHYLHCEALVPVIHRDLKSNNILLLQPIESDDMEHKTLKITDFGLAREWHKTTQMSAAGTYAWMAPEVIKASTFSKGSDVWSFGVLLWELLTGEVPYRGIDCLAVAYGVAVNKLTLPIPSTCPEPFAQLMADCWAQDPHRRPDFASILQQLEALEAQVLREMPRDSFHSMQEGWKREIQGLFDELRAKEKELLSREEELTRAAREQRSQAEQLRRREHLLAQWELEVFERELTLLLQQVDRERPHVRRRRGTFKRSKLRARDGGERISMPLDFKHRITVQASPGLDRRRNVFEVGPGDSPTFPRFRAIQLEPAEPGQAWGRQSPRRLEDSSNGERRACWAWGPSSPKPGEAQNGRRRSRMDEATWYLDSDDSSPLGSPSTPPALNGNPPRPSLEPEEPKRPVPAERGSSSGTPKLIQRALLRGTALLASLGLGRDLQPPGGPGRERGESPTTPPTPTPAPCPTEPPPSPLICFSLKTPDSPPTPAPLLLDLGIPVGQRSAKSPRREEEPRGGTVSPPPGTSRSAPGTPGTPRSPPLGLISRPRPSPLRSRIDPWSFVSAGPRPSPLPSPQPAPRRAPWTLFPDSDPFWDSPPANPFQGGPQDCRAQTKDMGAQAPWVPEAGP

SRPK1 = SRPK1 (Homo sapiens, UniProt Q96SB4)
Sequence of SRPK1 (Q96SB4 whole entry): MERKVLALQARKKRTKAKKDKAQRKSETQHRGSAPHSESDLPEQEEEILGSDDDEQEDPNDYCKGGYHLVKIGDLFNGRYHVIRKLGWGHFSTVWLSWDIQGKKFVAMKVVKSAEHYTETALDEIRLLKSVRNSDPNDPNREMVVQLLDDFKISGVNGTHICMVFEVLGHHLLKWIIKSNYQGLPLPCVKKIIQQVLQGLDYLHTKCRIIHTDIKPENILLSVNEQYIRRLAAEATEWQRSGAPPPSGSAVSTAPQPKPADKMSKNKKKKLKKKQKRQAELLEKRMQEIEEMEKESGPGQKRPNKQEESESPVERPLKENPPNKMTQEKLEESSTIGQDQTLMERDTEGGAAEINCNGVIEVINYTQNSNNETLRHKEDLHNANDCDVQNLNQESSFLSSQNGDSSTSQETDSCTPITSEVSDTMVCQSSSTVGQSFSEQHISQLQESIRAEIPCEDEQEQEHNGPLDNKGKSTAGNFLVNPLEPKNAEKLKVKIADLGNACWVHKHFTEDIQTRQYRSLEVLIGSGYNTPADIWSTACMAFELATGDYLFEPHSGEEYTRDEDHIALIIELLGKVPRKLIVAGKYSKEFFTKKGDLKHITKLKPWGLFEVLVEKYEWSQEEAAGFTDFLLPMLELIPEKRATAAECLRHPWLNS

PKCa = target: T9, PKCa (Homo sapiens, UniProt P17252)
T9 construct: gene PRKCA

CAMK1 = CAMK1 (Homo sapiens, UniProt Q14012)
PRK2 = target: T10, PRK2 (Homo sapiens, UniProt Q16513)
T10 construct: gene PKN2

p38a MAPK = target: T11, p38a MAPK (Homo sapiens, UniProt Q16539)
T11 construct: gene MAPK14

MARK3 = MARK3 (Homo sapiens, UniProt P27448)
Sequence of MARK3 (P27448 whole entry): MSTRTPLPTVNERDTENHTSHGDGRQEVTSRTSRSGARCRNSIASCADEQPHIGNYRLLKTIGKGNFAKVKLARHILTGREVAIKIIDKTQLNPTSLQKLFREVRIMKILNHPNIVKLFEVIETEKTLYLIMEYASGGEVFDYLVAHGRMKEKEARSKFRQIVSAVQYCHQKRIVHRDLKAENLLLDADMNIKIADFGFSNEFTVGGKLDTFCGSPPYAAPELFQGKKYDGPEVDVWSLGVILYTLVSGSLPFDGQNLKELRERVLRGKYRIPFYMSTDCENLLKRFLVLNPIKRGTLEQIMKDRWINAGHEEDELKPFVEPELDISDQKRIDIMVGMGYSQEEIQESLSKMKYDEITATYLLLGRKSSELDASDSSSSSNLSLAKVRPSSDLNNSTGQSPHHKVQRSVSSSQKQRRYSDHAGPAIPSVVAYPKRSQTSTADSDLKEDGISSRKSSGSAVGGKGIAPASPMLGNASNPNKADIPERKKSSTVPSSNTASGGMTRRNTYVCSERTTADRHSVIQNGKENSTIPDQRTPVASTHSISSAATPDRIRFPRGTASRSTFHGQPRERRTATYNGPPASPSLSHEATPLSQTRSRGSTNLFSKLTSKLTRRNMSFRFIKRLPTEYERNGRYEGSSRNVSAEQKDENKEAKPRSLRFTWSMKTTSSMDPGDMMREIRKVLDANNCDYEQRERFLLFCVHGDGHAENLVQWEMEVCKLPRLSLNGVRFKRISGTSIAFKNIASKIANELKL

TrkA = target: T12, TrkA (Homo sapiens, UniProt P04629)
T12 construct: gene NTRK1

RIPK2 = RIPK2 (Homo sapiens, UniProt O43353)
PKA = target: T13, PKA (Homo sapiens, UniProt P17612)
T13 construct: gene PRKACA

Src = Src (Homo sapiens, UniProt P12931)
DYRK1A = DYRK1A (Homo sapiens, UniProt Q13627)
HER4 = target: T14, HER4 (Homo sapiens, UniProt Q15303)
T14 construct: gene ERBB4

EF2K = target: T15, EF2K (Homo sapiens, UniProt O00418)
T15 construct: gene EEF2K

JAK3 = JAK3 (Homo sapiens, UniProt P52333)
CK1δ = target: T16, CK1δ (Homo sapiens, UniProt P48730)
T16 construct: gene CSNK1D
T16 sequence (P48730 whole entry): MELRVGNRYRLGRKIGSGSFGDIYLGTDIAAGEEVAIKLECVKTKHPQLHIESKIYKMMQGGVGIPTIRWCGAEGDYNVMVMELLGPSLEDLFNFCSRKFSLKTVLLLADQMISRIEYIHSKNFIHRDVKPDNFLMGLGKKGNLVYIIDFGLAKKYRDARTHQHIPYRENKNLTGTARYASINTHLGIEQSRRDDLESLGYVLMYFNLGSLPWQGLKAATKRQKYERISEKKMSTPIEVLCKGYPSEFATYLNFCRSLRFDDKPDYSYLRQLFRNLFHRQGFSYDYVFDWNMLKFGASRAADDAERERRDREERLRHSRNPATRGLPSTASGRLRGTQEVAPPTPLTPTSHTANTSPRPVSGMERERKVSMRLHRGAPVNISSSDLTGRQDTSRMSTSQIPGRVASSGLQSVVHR

Cc1ncsc1-c1ccc(CNC(=O)[C@@H]2C[C@@H](O)CN2C(=O)[C@@H](NC(=O)C2(C#N)CC2)C(C)(C)C)cc1 [VH298] was tested, and the remaining activity at 50 µM (SmMLCK) was 105%, the remaining activity at 50 µM (PIM1) was 92% and the remaining activity at 50 µM (S6K1) was 87%. It also gave a remaining activity at 50 µM (HIPK2) of 100%, a remaining activity at 50 µM (NEK6) of 106% and a remaining activity at 50 µM (CK2) of 116%. It also gave a remaining activity at 50 µM (JNK1) of 119%, a remaining activity at 50 µM (SGK1) of 83% and a remaining activity at 50 µM (CHK2) of 93%. For the same compound, the remaining activity at 50 µM (ROCK 2) was 75%, the remaining activity at 50 µM (PAK4) was 97% and the remaining activity at 50 µM (RSK1) was 94%. The remaining activity at 50 µM (MLK3) was 95%, the remaining activity at 50 µM (SRPK1) was 101% and the remaining activity at 50 µM (PKCa) was 99%. It also gave a remaining activity at 50 µM (CAMK1) of 81%, a remaining activity at 50 µM (PRK2) of 110% and a remaining activity at 50 µM (p38a MAPK) of 108%. The remaining activity at 50 µM (MARK3) was 94%, the remaining activity at 50 µM (TrkA) was 100% and the remaining activity at 50 µM (RIPK2) was 112%. The remaining activity at 50 µM (PKA) was 68%, the remaining activity at 50 µM (Src) was 112% and the remaining activity at 50 µM (DYRK1A) was 76%. It also gave a remaining activity at 50 µM (HER4) of 96%, a remaining activity at 50 µM (EF2K) of 116% and a remaining activity at 50 µM (JAK3) of 99%. The remaining activity at 50 µM (CK1δ) was 99%.
